The test system of assay [1] is CD38+ T cells in the peripheral blood. The note with it: Arm A, erdafitinib monotherapy, FIG. 7c.
Experimental: In Phase 2, two dosing arms are explored: the erdafitinib monotherapy treatment at the starting oral dose of 8 mg (Arm A), or the combination treatment of erdafitinib and cetrelimab (Arm B).
For phase 1b, blood for immune cell profiling were collected at four time points (C1D1, C1D15, C2D1 and C3D1). For phase 2, blood was collected at six time points (C1D1, C1D15, C2D1, C2D15, C3D1 and C3D15). Blood samples were subjected to flow cytometry analysis on a real time basis. T cell activation is quantified as fold increase in the proportions of 1) CD38+CD3, CD38+CD4, or CD38+CD8 T cells out of lymphocytes or CD3 T cell populations, and 2) CD38+ cells out of CD4+ or CD8+ T cell populations, compared to the baseline proportion levels at C1D1.
(§1) Longitudinal blood samples were analyzed from DL2A (E8J cohort: Erda 8 mg+cetrelimab 240 mg), DL2B (E8RJ cohort: Erda 8 mg 28 days run-in +cetrelimab 240 mg), and DL2 (EJ cohort: Erda 8 mg with the potential dose adjustments to 9 mg depending on phosphate levels measured on C1D15+cetrelimab 240 mg) of phase 1b, and blood samples from Arm A and Arm B of phase 2.
Assay [2] shares this test system. Description: Phase 1b: flow cytometry immune cell profiling of blood, T cell activation (CD38+ T cells vs C1D1 baseline). In kind it is in vivo, human. Particulars: E8RJ cohort, at C1D15, erdafitinib treatment alone; FIG. 4C. On the technique in general: In flow cytometry, cells or beads pass a laser one at a time.
Text: Phase 1b is the dose escalation part of the study wherein two dosing cohorts (Standard Cohorts and Alternative Cohorts) of erdafitinib were explored, while cetrelimab intravenous (IV) dose was fixed. In the Standard Cohorts (DL1, DL2 or DL2A), erdafitinib and cetrelimab start concurrently from Cycle 1 Day 1 (C1D1). In the Alternative Cohorts (DL1B or DL2B), administration of erdafitinib starts on C1D1 but cetrelimab is initiated 1 cycle (4 weeks) later, on Cycle 2 Day 1 (C2D1) (also referred to as a 28-day run-in of erdafitinib).
For phase 1b, blood for immune cell profiling were collected at four time points (C1D1, C1D15, C2D1 and C3D1). […] Blood samples were subjected to flow cytometry analysis on a real time basis. T cell activation is quantified as fold increase in the proportions of 1) CD38+CD3, CD38+CD4, or CD38+CD8 T cells out of lymphocytes or CD3 T cell populations, and 2) CD38+ cells out of CD4+ or CD8+ T cell populations, compared to the baseline proportion levels at C1D1.
as §1

Where two headings read alike, the source gives them in different places.

With `COc1cc(OC)cc(N(CCNC(C)C)c2ccc3ncc(-c4cnn(C)c4)nc3c2)c1` [erdafitinib, N-(3,5-dimethoxyphenyl)-N′-(1-methylethyl)-N-[3-(1-methyl-1H-pyrazol-4-yl)quinoxalin-6-yl]ethane-1,2-diamine], the “extent of increase of proportion of CD38+CD8 T cells” value in assay [1] (compared with Arm B) is recorded as “less than that observed in Arm B”. Further, the “proportion of CD38+CD8 T cells” value in assay [1] is on record as “increased with time”; in assay [2], “dramatically increased”.
